In patent publication US11905277B1, “2-alkyloxy-6-(2-oxo-2H-1-benzopyran-3-yl)-4-phenylpyridine-3-carbonitrile as an antimicrobial compound” (KING FAISAL UNIVERSITY, priority 2023, dated 2024):

Assays:
[1] = tested on: Bacillus cereus; experiment: Agar plate disc-diffusion, antibacterial activity (inhibition zone); format: cell-based; details: nutrient agar, 37° C., 48 h, DMSO zone subtracted
Procedure: (§1) The agar plate disc-diffusion method was applied. Sterilized filter papers (6 mm in diameter) were wetted with 10 μL of a solution of 2-ethoxy-6-(2-oxo-2H-1-benzopyran-3-yl)-4-phenylpyridine-3-carbonitrile (1) and 2-methoxy-6-(2-oxo-2H-1-benzopyran-3-yl)-4-phenylpyridine-3-carbonitrile (2) to be tested, containing […], and the discs were allowed to air dry. The discs were then placed onto the surface of agar plates (nutrient agar for bacteria and Sabouraud's dextrose agar for fungi) seeded with the test organism. Each plate contained 15 mL of the agar medium, previously seeded with 0.2 mL of the broth culture of each organism pregrown for 18 hours. The plates were incubated at 37° C. for 48 h, and 72 h for fungi. The inhibition zones were measured in mm. Discs impregnated with DMSO were used as a control, and its inhibition zone was subtracted from the tested compound actual inhibition zone.

[2] = tested on: Escherichia coli; experiment: as above; format: cell-based; details: nutrient agar, 37° C., 48 h, DMSO zone subtracted
Procedure: as §1

[3] = tested on: Pseudomonas aeruginosa; experiment: as above; format: cell-based; details: nutrient agar, 37° C., 48 h, DMSO zone subtracted
Procedure: as §1

[4] = tested on: Staphylococcus aureus; experiment: as above; format: cell-based; details: nutrient agar, 37° C., 48 h, DMSO zone subtracted
Procedure: as §1

[5] = tested on: Aspergillus flavus; experiment: Agar plate disc-diffusion, antifungal activity (inhibition zone); format: cell-based; details: Sabouraud's dextrose agar, 72 h, DMSO zone subtracted
Procedure: as §1

[6] = tested on: Chrysosporium keratinophilum; experiment: as above; format: cell-based; details: Sabouraud's dextrose agar, 72 h, DMSO zone subtracted
Procedure: as §1

[7] = tested on: different microbes; experiment: Antimicrobial testing, overall statement on Tables 1 and 2; format: cell-based; details: summary of Tables 1 and 2; bacteria and fungi tested
Procedure: as §1
Their antibacterial activity was screened against gram positive bacteria namely Bacillus cereus and Staphylococcus aureus and gram-negative bacterial strains namely Pseudomonas aeruginosa and Escherichia coli, while their antifungal activity was screened against Aspergillus flavus and Chrysosporium keratinophilum.

[8] = A = concentration of comp. = 10,000 μL
[9] = B = concentration of comp. = 30.000 μL
[10] = C = concentration of comp. = 50,000 μL

O=C(O)c1cn(C2CC2)c2cc(N3CCNCC3)c(F)cc2c1=O [Cip., reference compound] showed an inhibition zone [1, 8] of 29 mm, an inhibition zone [1, 9] of 30 mm and an inhibition zone [1, 10] of 42 mm. It also gave an inhibition zone [2, 8] of 30 mm, an inhibition zone [2, 9] of 39 mm and an inhibition zone [2, 10] of 60 mm. For the same compound, the inhibition zone [3, 8] was 29 mm, the inhibition zone [3, 9] was 30 mm and the inhibition zone [3, 10] was 53 mm. For the same compound, the inhibition zone [4, 8] was 43 mm, the inhibition zone [4, 9] was 44 mm and the inhibition zone [4, 10] was 53 mm. For the same compound, the inhibition zone [5, 8] was 29 mm, the inhibition zone [5, 9] was 30 mm and the inhibition zone [5, 10] was 42 mm. For the same compound, the inhibition zone [6, 8] was 29 mm, the inhibition zone [6, 9] was 30 mm and the inhibition zone [6, 10] was 53 mm.

In the case of CCOc1nc(-c2cc3ccccc3oc2=O)cc(-c2ccccc2)c1C#N [Compound 1, 2-ethoxy-6-(2-oxo-2H-1-benzopyran-3-yl)-4-phenylpyridine-3-carbonitrile], the inhibition zone [1, 8] was 31 mm, the inhibition zone [1, 9] was 36 mm and the inhibition zone [1, 10] was 43 mm. For the same compound, the inhibition zone [2, 8] was 38 mm, the inhibition zone [2, 9] was 43 mm and the inhibition zone [2, 10] was 48 mm. The inhibition zone [3, 8] was 25 mm, the inhibition zone [3, 9] was 32 mm and the inhibition zone [3, 10] was 40 mm. For the same compound, the inhibition zone [4, 8] was 11 mm, the inhibition zone [4, 9] was 19 mm and the inhibition zone [4, 10] was 21 mm. The inhibition zone [5, 8] was 29 mm, the inhibition zone [5, 9] was 33 mm and the inhibition zone [5, 10] was 41 mm. It also gave an inhibition zone [6, 8] of 22 mm, an inhibition zone [6, 9] of 31 mm and an inhibition zone [6, 10] of 37 mm. The “antimicrobial activity (in words)” value [7] was “high antimicrobial activities”.

COc1nc(-c2cc3ccccc3oc2=O)cc(-c2ccccc2)c1C#N [Compound 2, 2-methoxy-6-(2-oxo-2H-1-benzopyran-3-yl)-4-phenylpyridine-3-carbonitrile] gave an inhibition zone [1, 8] of 33 mm, an inhibition zone [1, 9] of 38 mm and an inhibition zone [1, 10] of 44 mm. It also gave an inhibition zone [2, 8] of 37 mm, an inhibition zone [2, 9] of 43 mm and an inhibition zone [2, 10] of 49 mm. The inhibition zone [3, 8] was 25 mm, the inhibition zone [3, 9] was 34 mm and the inhibition zone [3, 10] was 41 mm. It also gave an inhibition zone [4, 8] of 15 mm, an inhibition zone [4, 9] of 22 mm and an inhibition zone [4, 10] of 25 mm. It also gave an inhibition zone [5, 8] of 17 mm, an inhibition zone [5, 9] of 21 mm and an inhibition zone [5, 10] of 29 mm. The inhibition zone [6, 8] was 31 mm, the inhibition zone [6, 9] was 39 mm and the inhibition zone [6, 10] was 47 mm. For the same compound, the “antimicrobial activity (in words)” value [7] was “high antimicrobial activities” and the melting point was 149 to 150 °C.
